# Experimental data reported in patent US6291694A, “Process and intermediates useful to produce vitamin D analogs” (Hoffman-La Roche Inc., priority 2000, dated 2001).
# Assay: pKa of alcohol additive in water
# Format: physicochemical
row,Compound,pKa in water
1,"OC(C(F)(F)F)(C(F)(F)F)C(F)(F)F [formula 15d, perfluoro-t-butanol]",5.18
2,"OC(c1ccccc1)(C(F)(F)F)C(F)(F)F [formula 15c, 1,1,1,3,3,3-hexafluoro-2-phenyl-2-propanol]",8.52
3,"OC(c1cccc(C(O)(C(F)(F)F)C(F)(F)F)c1)(C(F)(F)F)C(F)(F)F [Formula 16, 1,3-bis(1,1,1,3,3,3, -hexafluoro-2-hydroxypropyl)benzene]",8.48
4,OC(C(F)(F)F)C(F)(F)F [formula 15b],9.13
5,CC(O)(C(F)(F)F)C(F)(F)F [formula 15a],9.51
